Results published in patent US9855239B2, “Methods for the treatment and prevention of age-related retinal dysfunction” (University of Washington, priority 2008, dated 2018).
“Also recorded” adds a separate entry of the source.

Tests used:
C57BL/6 female mice = assay: Single flash ERG analyses after long-term treatment; format: in vivo, mouse; details: for a- and b-wave amplitudes, scotopic and photopic single flash ERG: 80 mg/kg
Source text: To evaluate the effects of rod- and cone-mediated light responses after long-term 9-cis-R-Ac treatments, mice were examined by non-invasive ERG methods. The first set of analyses was done at 4 and 10 months of age. Under scotopic conditions, the amplitudes of a-waves decreased with age, especially at high flash intensities (C1 versus C0 group, FIG. 4A, left top panel), whereas the changes in b-waves were less evident (FIG. 4A, right top panel).
The second set of analyses was done at 14 months of age.
Six groups of mice were studied (FIG. 1B).
(§1) Two weeks after the last gavage with either, 9-cis-R-Ac, all-trans-R-Ac or vehicle, groups of 48 hr dark-adapted mice were analyzed for recovery of dark adaptation after light exposure, purified rhodopsin/opsin and retinoids in the eye and retinal morphology (FIG. 1C; Methods). Mice were exposed to light of intensity 500 cd·m^−2 that bleached ˜90% of rhodopsin, anesthetized and monitored by ERG for one hr to evaluate recovery of dark adaptation. Rhodopsin was purified and rhodopsin/opsin ratios was determined. Retinoid analyses were performed on dissected eyes removed at 0, 10, 30, and 60 min after exposure to the same amount of light. Mice used to evaluate retinal morphology were not exposed to photobleaching prior to analysis.
ERGs of anesthetized mice were recorded as previously reported.

[1] = Husbandry: activity, coat and skin appearance, body weight, tolerability
Method: Animals were evaluated weekly for activity and changes in coat and skin appearance.
For the long-term study (FIGS. 1B and 1C, Table 1), mice were obtained at 3 months of age and raised until 4 months of age before the experiments were initiated. Mice then were gavaged with 9-cis-R-Ac or vehicle solution once a month for different durations. Six groups of mice were studied (FIG. 1B). The first 3 groups (C0 C1 and C2, total n=35 for each group) were treated as controls and tested at 4, 10 and 14 months of age. The other 3 groups (N1, N2 and N3, n=35) were gavaged with 9-cis-R-Ac. Group N1 was gavaged for 6 months and tested at 10 months of age. Group N2 was gavaged with 9-cis-R-Ac for 10 months and tested at 14 months of age. Group N3, was gavaged with vehicle until 10 months of age and then received 9-cis-R-Ac monthly until testing at 14 months of age.

[2] = Retinoid kinetics in the eyes during dark adaptation, long-term treatment; format: in vivo, mouse; details: 10 months of age, N1 vs C1, 60 min after the bleach (p<0.01)
Method: Recovery of the ERG response (dark adaptation) following bleach was measured by monitoring the amplitude of a-waves after retinal exposure to intense constant illumination (500 cd·m^−2, ˜90% bleached rhodopsin) for 3 min. […] Retinoid kinetics in the eyes of each group were quantitatively evaluated during 60 min of dark adaptation after 3 min of bleaching at four subsequent time points of dark adaptation (0, 10, 30, and 60 min). […] Neither 9-cis-retinal nor 9-cis-retinyl esters were found in eyes from untreated groups (data not shown).
as §1, with “analysis. […]” for “analysis.”

[3] = Retinoid levels in eyes by HPLC, single dose; format: in vivo, mouse
Method: Forty eight hr dark-adapted, 10-month-old mice were gavaged with a single dose (˜80 mg/kg body weight) of 9-cis-R-Ac or control vehicle and exposed to strong illumination for 20 min (500 cd·m^−2 that bleached ˜90% rhodopsin). Next, mice were dark-adapted for 16 hr after which various analyses were performed (FIG. 1A). […] To investigate whether 9-cis-retinal was utilized to form isorhodopsin and to assess how much unliganded opsin was present in the mouse eyes, rhodopsin, isorhodopsin and opsin were purified by immunoaffinity chromatography from treated and control groups of mice. […] After bleaching, 9-cis-retinal is bound to opsin even in the presence of a functional retinoid cycle that produces 11-cis-retinal to regenerate rhodopsin. Eyes from non-bleached or bleached and dark-adapted untreated mice contained a small amount of free opsin.
9-cis-R-Ac was prepared as previously described (Batten, M. L., et al. PLoS medicine 2, e333 (2005); Batten, M. L., et al. J Biol Chem 279, 10422-10432 (2004)). A dose of ˜80 mg/kg body weight of 9-cis-R-Ac in 150 μl vegetable oil was administered via gavage to each treated animal. Prior to single dose experiments (FIG. 1A, Table 1), 10-month-old mice were dark-adapted for more than 48 hr, gavaged with 9-cis-R-Ac or vehicle control solution 1 hr before bleaching, exposed to light for 20 min at 500 cd·m^−2 and dark-adapted for 16 hr before analysis.
All experimental procedures related to extraction, derivatization and separation of retinoids were carried out under dim red light provided by a Kodak No. 1 safelight filter (transmittance>560 nm) as described previously (Van Hooser, J. P., et al. Proceedings of the National Academy of Sciences of the United States of America 97, 8623-8628 (2000); Van Hooser, J. P., et al. J Biol Chem, 277, 19173-19182 (2002); Maeda, A., et al. J Biol Chem 280, 18822-18832 (2005); Van Hooser, J. P., Garwin, G. G. & Saari, J. C. Methods Enzymol 316, 565-575 (2000)). Eluted fractions of purified rhodopsin from 6 mouse eyes were combined (total 3.0 ml) and mixed with an equal volume of 100% methanol. The mixture was vortexed and incubated on ice for 15 min. Retinoids were extracted twice with an equal volume of 100% hexane (6 ml total). The combined extracts were dried under argon and retinoids were separated by normal phase HPLC (Beckman, Ultrasphere-Si, 5 μm, 4.6×250 mm) with 10% ethyl acetate and 90% hexane at a flow rate of 1.4 ml/min and detected at 325 nm by an HPI 100 HPLC with a diode array detector and HP Chemstation A.03.03 software. A2E was analyzed as previously described (Maeda, A., et al. J Biol Chem, 280, 18822-18832 (2005)).

CC(=O)OC/C=C(C)/C=C/C=C(C)\C=C\C1=C(C)CCCC1(C)C [9-cis-R-Ac, 9-cis-retinyl acetate]
a- and b-wave amplitudes, scotopic and photopic single flash ERG (C57BL/6 female mice; 10 months of age, monthly gavage ~80 mg/kg for 6 months (N1 vs C1), high flash strengths, except a-waves under photopic conditions): slight improvement; also recorded: significantly improved; also recorded: increased significantly
sensitivities and maximal a-wave amplitudes estimated from a-wave maximal responses (C57BL/6 female mice; 14 months of age, dark-adapted mice, treated vs control): not to be significantly different
a- and b-wave amplitudes, scotopic and photopic single flash ERG (C57BL/6 female mice; 14 months of age, monthly gavage ~80 mg/kg (9-cis-R-Ac: N2 and N3), vs control C2): No significant differences; also recorded: largely disappeared
activity and changes in coat and skin appearance ([1]; evaluated weekly during the experimental period): No changes
body weights ([1]; pre-treatment, 10 months and 14 months, control (C1-2) vs treated (N1-3)): no significant differences
regeneration level of 11-cis-retinal in eyes [2]: significantly higher
9-cis-retinal in eyes ([3]; exposed to intense light, treated mice): Significant amounts of 9-cis-retinal were detected; also recorded: detected only in the eyes of 9-cis-R-Ac treated mice
9-cis-retinyl esters in eyes (RPE) ([3]; treated and exposed to intense light): significant amount of 9-cis-retinyl esters; also recorded: easily detectable; also recorded: detected only in the eyes of 9-cis-R-Ac treated mice
amounts of 11-cis-retinal and all-trans-retinyl esters in eyes ([3]; treated vs control): not significantly affected; also recorded: similar
9-cis-retinal in eyes ([3]; unbleached treated mouse eyes): Only trace amounts
